In data set [1] the test system is triple-negative phenotypic breast cancer cell line MDA-MB-436. Description: Cell proliferation inhibition assay (SRB method). Type of data set: cell-based. Particulars: Homo sapiens, 144 h; BRCA-deficient MDA-MB-436, six days, compound alone. An excerpt:
Cell Proliferation Inhibition Assay
This assay was used to study the effect of PARP-1 inhibitor alone for tumor suppression. Breast cancer susceptibility genes BRCA1 and BRCA2 play an important role in homologous recombination DNA repair. BRCA-deficient cells represent homologous recombination repair defect, if PARP-mediated DNA repair is inhibited at the same time, DNA damage in cells may be increased, resulting in chromatin abnormality or even cell death.
BRCA-deficient breast cancer cell line MDA-MB-436 was selected for the assay, PARP inhibitor was used alone to evaluate its damage effect on cells. The inhibition effect of the compound was expressed by IC50.
Breast cancer cell line MDA-MB-436 in good growth condition seeded in 96-well plates (5000 cells/well or 3000 cells/well, respectively), and cultured overnight in an incubator at 37° C., 5% CO2 with saturated humidity. On the next day, samples with a series of concentration gradients were added and cultured for another six days. SRB method was used to detect the samples' inhibition on cell growth and calculate their growth inhibition rate.

Data set [2] in a line: Solubility test (thermodynamic solubility, HPLC external standard). Type of data set: physicochemical. Particulars: aqueous buffer, thermodynamic from solid; pH=7.4 phosphate buffer, 25° C., shaken 24 hours; read-out: Water Solubility (PH = 7.4). How it is done: In this test, excess amount of test sample was added into pH=7.4 phosphate buffer. Ultrasonic was performed for 30 min until the drug no longer dissolved. The solution was continuously shaked for 24 hours at a constant temperature of 25° C. to achieve a thermodynamic equilibrium of compound, and then the solution was filtrated to get filtrate. Quantitative analysis of compound in filtrate using external standard method is performed according to “Appendix VD High Performance Liquid Chromatography, Part II of Pharmacopeia 2010,” and the sample thermodynamic solubility in pH=7.4 phosphate buffered solution was determined.
Agilent 1200 LC, Phenomen C18 column (4.6 mm*150 mm, […]), mobile phase: methanol:water (60:40), flow rate: 1 mL/min, column temperature: 25° C., wave length: 230 nm, injection volume: 10 μL
About 30 mg test compound was put in a 10 mL volumetric flask, about 8 mL pH=7.4 phosphate buffer was added and ultrasonic was performed for 30 min, and the solution was shaked for 24 hours in a shaker at a constant temperature of 25° C. The solution was settled for half an hour under 25° C., filtered with […] hydrophilic filter. The filtrate was used as test sample.
Standard compound AZD-2281 was put in a volumetric flask and dissolved in the mobile phase. The solutions were injected to measure the peak area. The retention time of AZD-2281 was about 8.5 min. The peak area was regressed against concentration to get a regression equation y=29.66x+302.82 (r=0.9997), and the linear range is 52.45˜83.92 µg/mL (see FIG. 1).
The test solution was injected for three times according to the above chromatographic conditions. The peak area was measured to calculate the corresponding concentration.
The procedures for testing the solubility of other compounds were similar with compound AZD-2281.

The subject of data set [3] is occlusion of the MCA in mice. Particulars: intracerebroventricular administration; cited from earlier work.
In data set [4] the test system is rat model of focal cerebral ischemia. Particulars: i.p. 10 mg/kg two hours prior to and two hours after the initiation of ischemia; cited from earlier work.

In brackets after ≈: the same amount, converted by molar mass.

As a reminder, the IC50 is the concentration needed to halve the response being measured. As to `O=C(c1cc(Oc2n[nH]c(=O)c3ccccc23)ccc1F)N1CCN(C(=O)c2ccccc2[N+](=O)[O-])CC1` [Compound 88, 4-(4-fluoro-3-(4-(2-nitrobenzoyl)piperazine-1-carbonyl)phenoxy)-2H-phthalazin-1-one], the IC50 in data set [1] is 3.28 µM. A word on the solubility: it is the concentration that dissolves in the medium under given conditions. Take `NC1(C(=O)N2CCN(C(=O)c3cc(Oc4n[nH]c(=O)c5ccccc45)ccc3F)CC2)CC1` [Compound 125, 4-(3-(4-(1-aminocyclopropanecarbonyl)piperazine-1-carbonyl)-4-fluorophenoxy)2H-phthalazin-1-one]: the solubility at 24 h in data set [2] turned out to be 671 µg/mL (≈ 1490 µM). Take `NC(=O)c1cccc(N)c1` [Compound 3-AB, 3-aminobenzamide]: the “decrease in infarct volume” value in data set [3] is 47%. For the compound `C[C@]1(C(=O)N2CCN(C(=O)c3cc(Oc4n[nH]c(=O)c5ccccc45)ccc3F)CC2)CCCN1` [Compound 130, (R)-4-(4-fluoro-3-(4-(2-methylpyrrolidine-2-carbonyl)piperazine-1-carbonyl)phenoxy)-2H-phthalazin-1-one], the IC50 in data set [1] stood at 3.85 µM.

As for `CN(C)C1(C(=O)N2CCN(C(=O)c3cc(Oc4n[nH]c(=O)c5ccccc45)ccc3F)CC2)CC1` [Compound 124, 4-(3-(4-(1-(dimethylamino)cyclopropanecarbonyl)piperazine-1-carbonyl)-4-fluorophenoxy)2H-phthalazin-1-one], the IC50 in data set [1] is 3.7 µM. Also, the solubility at 24 h in data set [2] is 1440 µg/mL (≈ 3000 µM).

For `CCC(=O)N1CCN(C(=O)c2cc(Oc3n[nH]c(=O)c4ccccc34)ccc2F)CC1` [Compound 100, 4-(4-fluoro-3-(4-propionylpiperazine-1-carbonyl)phenoxy)2H-phthalazin-1-one], in data set [1], the IC50 was 4.12 µM. Also, in data set [2], the solubility at 24 h was found to be 660 µg/mL (≈ 1560 µM).

Consider `CC(C)N1CCN(C(=O)c2cc(Oc3n[nH]c(=O)c4ccccc34)ccc2F)CC1` [Compound 79, 4-(4-fluoro-3-(4-isopropyl-1-carbonyl)phenoxy)-2H-phthalazin-1-one], for which the solubility at 24 h in data set [2] came to 650 µg/mL (≈ 1580 µM). `O=C1NCCc2c(OCCCCN3CCCCC3)cccc21` [DPQ, 3,4-dihydro-5-[4-(1-piperidinyl)butoxy]-1(2H)-isoquinolinone]: the “reduction in infarct volume” value in data set [4] is reported as 54%. `O=C(c1cc(Oc2n[nH]c(=O)c3ccccc23)ccc1F)N1CCN(C(=O)C2CCCCC2)CC1` [Compound 99]: the IC50 in data set [1] is 2.63 µM.

As to `CCC(CC)C(=O)N1CCN(C(=O)c2cc(Oc3n[nH]c(=O)c4ccccc34)ccc2F)CC1` [Compound 61, 4-(3-(4-(2-ethylbutyryl)piperazine-1-carbonyl)-4-fluorophenoxy)-2H-phthalazin-1-one], the IC50 in data set [1] was determined as 1.98 µM. The same measure, in the same setting: the result for `C[C@@H](C(=O)N1CCN(C(=O)c2cc(Oc3n[nH]c(=O)c4ccccc34)ccc2F)CC1)c1ccccc1` [Compound 49, (R)-4-(4-fluoro-3-(4-(2-phenylpropionyl)piperazine-1-carbonyl)phenoxy)-2H-phthalazin-1-one] reads 4.21 µM. `O=C(c1cc(Cc2n[nH]c(=O)c3ccccc23)ccc1F)N1CCN(C(=O)C2CC2)CC1` [AZD-2281, reference compound]: the IC50 in data set [1] worked out at 4.38 µM. Moreover, the solubility at 24 h in data set [2] worked out at 531 µg/mL (≈ 1220 µM). Turning to `CNC1(C(=O)N2CCN(C(=O)c3cc(Oc4n[nH]c(=O)c5ccccc45)ccc3F)CC2)CCC1` [Compound 127, 4-(4-fluoro-3-(4-(1-(methylamino)cyclobutanecarbonyl)piperazine-1-carbonyl)phenoxy)2H-phthalazin-1-one], the solubility at 24 h in data set [2] worked out at 630 µg/mL (≈ 1310 µM). `O=C(c1cc(Oc2n[nH]c(=O)c3ccccc23)ccc1F)N1CCN(C(=O)N2CCCCC2)CC1` [Compound 85, 4-(4-fluoro-3-(4-(piperidine-1-carbonyl)piperazine-1-carbonyl)phenoxy)-2H-phthalazin-1-one]: the IC50 in data set [1] was 3.35 µM. As to `CC(C)(C)C(=O)N1CCN(C(=O)c2cc(Oc3n[nH]c(=O)c4ccccc34)ccc2F)CC1` [Compound 55, 4-(4-fluoro-3-(4-pivaloylpiperazine-1-carbonyl)phenoxy)-2H-phthalazin-1-one], the solubility at 24 h in data set [2] was determined as 602 µg/mL (≈ 1330 µM). Turning to `O=C(c1cc(Oc2n[nH]c(=O)c3ccccc23)ccc1F)N1CCN(C(=O)C2CCC(F)(F)CC2)CC1` [Compound 107, 4-(3-(4-(4,4-difluorocyclohexanecarbonyl)piperazine-1-carbonyl)-4-fluorophenoxy)2H-phthalazin-1-one], the half-inhibitory concentration (IC50) in data set [1] worked out at 3.17 µM.

These data come from patent US9187430B2, “Poly (ADP-ribose) polymerase inhibitor” (CHENGDU DI'AO PHARMACEUTICAL GROUP CO., LTD., priority 2011, dated 2015).
